Measured values as given in US20060229209A1, “Copolymers based on n-vinylamide as adjuvants and agents for using in the agrotechnical field” (priority 2002, published 2006).

System: Puccinia recondita
Assay: Improvement in the fungicidal activity: wheat leaves inoculated with Puccinia recondita, sprayed with fungicide plus test additive, visual assessment of infestation
Type: in vivo, Puccinia recondita on wheat variety "Kanzler"
Settings: no test additive, 8 days in greenhouse after spraying
Experimental: Both of the leaves which developed first of wheat seeds of the variety “Kanzler”, which were raised in pots, were dusted with spores of Puccinia recondita. In order to guarantee the success of the artificial inoculation, the plants were kept for 24 hours in a humidity chamber without light at a relative humidity of 95 to 99% and a temperature of 20 to 22° C. The next day, the plants were sprayed with an aqueous suspension comprising fungicide at the concentration given below as a mixture with water and 125 ppm of the test additive. The plants were allowed to dry in the air. The experimental plants were subsequently cultivated in a greenhouse for 8 days at a temperature of 22 to 26° C. and a relative humidity of between 40 and 80%. The extent of the fungal infestation on the leaves was assessed visually and expressed as a percentage of the affected leaf area with respect to the unaffected leaf area.

Row | Compound | % affected leaf area (Epoxiconazole 0.125 ppm a.c.) | % affected leaf area (Epoxiconazole 0.25 ppm a.c.) | % affected leaf area (Pyraclostrobin 1 ppm a.c.) | % affected leaf area (Pyraclostrobin 2 ppm a.c.)
1 | Fc1ccc([C@]2(Cn3cncn3)O[C@H]2c2ccccc2Cl)cc1 (racemic) [Epoxiconazole, epoxiconazole] | 53% | 47% | – | –
2 | COC(=O)N(OC)c1ccccc1COc1ccn(-c2ccc(Cl)cc2)n1 [Pyraclostrobin, pyraclostrobin] | – | – | 32% | 13%
